Entries after “also recorded” stand apart in the source; their conditions may differ.
What was measured:
REV-ERBα = biological target: T1, REV-ERBα (Homo sapiens, UniProt P20393); assay: Dual-luciferase Bmal-luc reporter assay in HEK293T cells transfected with REV-ERBα; type: cell-based; details: 10 μM
T1 construct: expressed in transfected cells; host or cells: HEK293T
T1 sequence (P20393 1-614): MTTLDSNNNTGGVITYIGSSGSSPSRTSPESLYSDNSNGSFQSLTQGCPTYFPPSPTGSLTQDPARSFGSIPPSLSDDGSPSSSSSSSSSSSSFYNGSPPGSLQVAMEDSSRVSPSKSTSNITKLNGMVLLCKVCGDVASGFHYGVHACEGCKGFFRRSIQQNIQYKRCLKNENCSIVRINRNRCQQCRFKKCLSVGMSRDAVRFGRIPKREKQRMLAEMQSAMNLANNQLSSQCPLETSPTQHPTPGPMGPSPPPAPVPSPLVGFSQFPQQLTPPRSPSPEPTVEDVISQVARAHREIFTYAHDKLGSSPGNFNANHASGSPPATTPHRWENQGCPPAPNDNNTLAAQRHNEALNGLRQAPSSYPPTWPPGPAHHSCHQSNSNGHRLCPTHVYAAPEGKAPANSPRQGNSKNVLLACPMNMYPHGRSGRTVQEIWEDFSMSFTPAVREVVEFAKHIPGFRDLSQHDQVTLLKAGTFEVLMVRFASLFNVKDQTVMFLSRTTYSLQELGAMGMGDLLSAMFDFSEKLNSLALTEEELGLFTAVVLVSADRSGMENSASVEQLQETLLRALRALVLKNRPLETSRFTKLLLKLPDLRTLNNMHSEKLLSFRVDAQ
Experimental: (§1) HEK293T cells were defrosted and maintained in DMEM supplemented with 10% FCS and 1% P/S at 37° C. and 5% CO2. Cells were plated in a 24-well plate (7·10^4 cells/well in 0.5 mL of DMEM+10% FCS). 24 h after seeding, cells were transfected with 100 ng of Bmal-luc, 10 ng of pRL-CMV Renilla as an internal control and 10 ng of REV-ERBα or the empty vector pcDNA3 as a control. All conditions were equalled to a total of 400 ng of DNA by using BSM. In order to prepare transfection samples, calculated amounts of DNA needed for each condition were prepared in Opti-MEM and Fugene was added in a 5:2 Fugene:DNA ratio. Mixtures were vortexed to assure homogeneity and left to incubate for 15 min at rt. Afterwards, each DNA mix was transferred into the 24-well plate containing the pre-seeded cells, with each condition repeated by triplicate. 5 h after transfection, cells were treated with compounds 2-12, AG1-AG5 or DMSO as vehicle. Solution of the compounds in DMEM were prepared at a double concentration than the final desired one, and 0.5 mL of these solutions were added to each well. 24 h after transfection, cells were lysed and luciferase activity was measured using Dual-Luciferase Reporter Assay System E2920 (Promega). To perform the experiment, cells were lysed by adding 50 μL of passive lysis buffer (PLB) (1:5 dilution) to each well and gently stirring for 30 min. Each cell lysate was transferred to a 96-well plate. 50 μL of Dual-Glo reagent were dispensed into each well, tapped gently to mix and incubated for 10 min. Luminescence of firefly luciferase was measured using a Tecan VICTOR Light Luminescent counter equipment. Then, 50 μL of Stop&Glo reagent were dispensed to quench firefly activity and activate Renilla luciferase, incubated for 10 min and measured. Firefly activity was normalized to Renilla luciferase activity. Results were analysed using Welch's corrected parametric t-test.
The method of Example 2 was repeated using Compounds 70 to 72 (generated as described in Example 1). Compounds 4, 7 and 11 (tested in Example 2) were used as a positive control for REV-ERB inhibitory activity, agonist compound AG2 (also tested in Example 2) and DMSO were also tested as comparators.
The method of Example 2 was repeated using Compounds 64 to 66, 69 and 70 to 73 (generated as described in Example 1). Once again, Compounds 4, 7 and 11 (tested in Example 2) were used as a positive control for REV-ERB inhibitory activity, agonist compound AG2 (also tested in Example 2) and DMSO were also tested as comparators.
The method of Example 2 was repeated using Compounds 16 to 19, 27, 28 and 44 (generated as described in Example 1). Once again, Compounds 4, 7 and 11 (tested in Example 2) were used as a positive control for REV-ERB inhibitory activity, agonist compound AG2 (also tested in Example 2) and DMSO were also tested as comparators.

REV-ERBβ = biological target: T2, REV-ERBβ (Homo sapiens, UniProt Q14995); assay: Dual-luciferase Bmal-luc reporter assay in HEK293T cells transfected with REV-ERBβ; type: cell-based; details: 10 μM
T2 construct: expressed in transfected cells; host or cells: HEK293T
T2 sequence (Q14995 1-579): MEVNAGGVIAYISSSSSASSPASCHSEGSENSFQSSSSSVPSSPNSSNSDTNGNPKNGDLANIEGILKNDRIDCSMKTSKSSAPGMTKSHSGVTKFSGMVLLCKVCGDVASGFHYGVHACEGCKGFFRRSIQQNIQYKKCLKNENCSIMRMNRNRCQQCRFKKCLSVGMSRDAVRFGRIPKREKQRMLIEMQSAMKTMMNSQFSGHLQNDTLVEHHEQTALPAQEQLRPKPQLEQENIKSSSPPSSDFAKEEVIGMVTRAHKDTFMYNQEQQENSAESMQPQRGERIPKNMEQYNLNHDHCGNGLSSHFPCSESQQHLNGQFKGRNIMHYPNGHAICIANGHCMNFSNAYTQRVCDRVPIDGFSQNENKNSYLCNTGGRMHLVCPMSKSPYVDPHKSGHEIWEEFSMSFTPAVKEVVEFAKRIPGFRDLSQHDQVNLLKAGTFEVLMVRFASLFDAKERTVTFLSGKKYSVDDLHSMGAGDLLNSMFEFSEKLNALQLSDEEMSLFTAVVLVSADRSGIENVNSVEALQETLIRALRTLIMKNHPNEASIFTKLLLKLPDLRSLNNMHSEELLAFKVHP
Experimental: as §1
The method of Example 2 was repeated but with 10 ng of REV-ERBβ used in place of REV-ERBa. Compounds 4, 66, 69 and 73 were tested (generated as described in Example 1). Agonist compound AG2 and DMSO were also tested as comparators.
The method of Example 5 was repeated using Compounds 18 and 19 (generated as described in Example 1). Agonist compound AG5 and DMSO were also tested as comparators.

NK cells = details: previously shown by the inventors; cited from earlier work
E4bp4 = details: previously shown by the inventors; cited from earlier work
[1] = FIG. 3, three independent experiments in triplicate, comparison with SR8278
[2] = FIG. 4, two independent experiments in triplicate, comparison with SR8278
[3] = FIG. 6, three independent experiments in triplicate
[4] = FIG. 8, two independent experiments in triplicate

Q: With `CCOC(=O)C1Cc2ccccc2CN1C(=O)OCC` (racemic) [Compound 4, Diethyl 3,4-dihydroisoquinoline-2,3(1H)-dicarboxylate] as the compound, how does the “Effect on REV-ERBα activity (Bmal-luc luciferase expression)” value (shortened to “Effect on REV-ERBα activity”) (REV-ERBα; [1]) read?
A: significant increase in luciferase expression compared with SR8278; also recorded: significant antagonistic activity

Q: What about the “Effect on REV-ERBα activity” value (REV-ERBα; [2]) of the same compound?
A: significant antagonistic activity

Q: And the “Effect on REV-ERBα activity” value (REV-ERBα; FIG. 7, three independent experiments in triplicate)?
A: significant antagonistic activity

Q: And the “Effect on REV-ERBβ activity (Bmal-luc luciferase expression)” value (shortened to “Effect on REV-ERBβ activity”) (REV-ERBβ; [3])?
A: significant antagonistic activity

Q: For `CCOC(=O)C1Cc2ccccc2CN1C(=O)c1ccnn1C` (racemic) [Compound 18], which “Effect on REV-ERBβ activity” value (REV-ERBβ; [4]) is on record?
A: antagonistic activity

Q: For `CCOC(=O)C1Cc2ccccc2CN1C(=O)c1ccn(C)n1` (racemic) [Compound 19], which “Effect on REV-ERBβ activity” value (REV-ERBβ; [4]) is on record?
A: antagonistic activity

Q: Which results are given for `CCOC(=O)C1Cc2ccccc2CN1S(=O)(=O)c1cccc2ccccc12` (stereo not shown) [AG2]?
A: Effect on REV-ERBα activity (Bmal-luc luciferase expression) (REV-ERBα; [1]): agonists; Effect on REV-ERBα activity (Bmal-luc luciferase expression) (REV-ERBα; [2]): agonist; Effect on REV-ERBα activity (Bmal-luc luciferase expression) (REV-ERBα; FIG. 5, three independent experiments in triplicate): agonist; Effect on REV-ERBβ activity (Bmal-luc luciferase expression) (REV-ERBβ; [3]): agonist; Effect on REV-ERBβ activity (Bmal-luc luciferase expression) (REV-ERBβ; [4]): agonist

Q: For `CCOC(=O)C1Cc2ccccc2CN1C(=O)c1ccc(SC)s1` (stereo not shown) [SR8278], which NK cell production (NK cells) is on record?
A: increases NK cell production

Q: What about the E4bp4 expression (E4bp4) of the same compound?
A: increases E4bp4 expression

Source: patent US12377119B2, “Natural killer cells” (IMPERIAL COLLEGE INNOVATIONS LIMITED, priority 2018, dated 2025)
